Patent publication US9988379B2, “GPR40 receptor agonist, methods of preparing the same, and pharmaceutical compositions containing the same as an active agent” (LG CHEM, LTD., priority 2012, dated 2018)

Molecular target: T1, human GPR40 (Homo sapiens, UniProt O14842)
T1 construct: expressed in transfected cells; host or cells: CHO-K1
Assay: Induction of Ca2+ (calcium flux assay) using human GPR40 expression cell line
Assay type: cell-based
Settings: read-out: EC0.5
Method: Evaluation of the Test Compounds for Induction of Ca^2+ Using Human GPR40 Expression Cell Line
The cell line expressing human GPR40 was generated by transfection of the GPR40 expression vector into CHO-K1 cell, and used in the following calcium flux assay.
The cell line was cultured in cell-culture medium (F-12 (Invitrogen) supplemented with 10% (v/v) FBS (Fetal Bovine Serum; Invitrogen), 0.5 mg/ml Geneticin (Invitrogen) and 1% (v/v) Antibiotic-Antimycotic solution (Invitrogen)) under the condition of 5% CO2 and 37° C. For calcium flux assay, the cells were diluted with the cell-culture medium to a concentration of 5×10^5 cells/ml, and the diluted cell suspension was dispensed in amount of 100 μl/well to a 96-well transparent bottom black polystyrene cell culture plate (Corning) and then cultured for 24 hours. The following concentrations of test compounds were added to these cells, and then the changes in intracellular calcium concentration were measured by FlexStation II384 (Molecular Devices). The following solution was prepared before the measurement.
First, a buffer solution for assay was prepared for use in the manufacture of fluorescent dye solution. This buffer solution was prepared by adding 1M HEPES solution (Invitrogen) to HBSS (Hanks' Balanced Salt Solution) (Invitrogen) and then adding 1M NaOH (Nacalai Tesque) to adjust pH to 7.4. Then the fluorescent dye solution was prepared according to the manufacturer's instruction attached to Calcium 5 Assay Kit (Molecular Devices), and the final DMSO concentration was adjusted to 2%.
The fluorescent dye solution was added in an amount of 100 μl/well to supernatant of the cell culture plate cultured for 24 hours. The plate was cultured for 1 hour under the condition of 5% CO2 and 37° C. so that the fluorescent dye was inserted into the cell.
Test compounds (i.e., the compounds prepared in the Examples) dissolved in dimethyl sulfoxide (DMSO ACROS) were diluted 200-fold in the buffer solution for assay to prepare compound solutions corresponding to the respective concentrations. […] 50 μl of the prepared sample solutions was added to each well of 96-well polypropylene plates (NUNC), and thereby a compound plate was prepared. Finally, the compound plate and the cell culture plate cultured for 1 hour with the fluorescent dye were placed in FlexStation II384.
After the above pre-treatment, the change in the intracellular calcium concentration when each concentration of the test compound solutions was added at 50 μl was measured by FlexStation II^384.
Then, the relative activity values depending on the concentration of the compound were plotted using Prism 4 software (GraphPad) to calculate the EC0.5 value.

T1 sequence (O14842 whole entry): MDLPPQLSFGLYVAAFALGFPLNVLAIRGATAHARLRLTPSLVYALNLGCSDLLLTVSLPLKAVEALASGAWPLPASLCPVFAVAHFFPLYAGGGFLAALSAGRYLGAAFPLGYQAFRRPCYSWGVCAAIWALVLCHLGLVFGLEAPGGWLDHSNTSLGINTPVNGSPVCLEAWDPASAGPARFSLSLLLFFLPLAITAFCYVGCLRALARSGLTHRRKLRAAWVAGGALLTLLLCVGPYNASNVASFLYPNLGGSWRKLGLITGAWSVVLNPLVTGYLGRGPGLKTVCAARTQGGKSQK

| SMILES | EC50 |
| --- | --- |
| CC#C[C@@H](CC(=O)O)c1ccc(OCc2ccc3ccn(Cc4ccccc4C)c3c2C)cc1 [Example 36, (S)-3-{4-[7-methyl-1-(2-methyl-benzyl)-1H-indol-6-ylmethoxy]-phenyl}-hex-4-ynoic acid] | 60 nM |
| CC#C[C@@H](CC(=O)O)c1ccc(OCc2ccc3ccn(Cc4ccccc4F)c3c2C)cc1 [Example 37, (S)-3-{4-[1-(2-fluoro-benzyl)-7-methyl-1H-indol-6-ylmethoxy]-phenyl}-hex-4-ynoic acid] | 40 nM |
| CC#C[C@@H](CC(=O)O)c1ccc(OCc2ccc3ccn(Cc4ccccc4Cl)c3c2C)cc1 [Example 38, (S)-3-{4-[1-(2-chloro-benzyl)-7-methyl-1H-indol-6-ylmethoxy]-phenyl}-hex-4-ynoic acid] | 90 nM |
| CC#C[C@@H](CC(=O)O)c1ccc(OCc2ccc3ccn(Cc4c(C)cccc4C)c3c2C)cc1 [Example 39, (S)-3-{4-[1-(2,6-dimethyl-benzyl)-7-methyl-1H-indol-6-ylmethoxy]-phenyl}-hex-4-ynoic acid] | 200 nM |
| CC#C[C@@H](CC(=O)O)c1ccc(OCc2ccc3ccn(Cc4ccccc4)c3c2Cl)cc1 [Example 40, (S)-3-[4-(1-benzyl-7-chloro-1H-indol-6-ylmethoxy)-phenyl]-hex-4-ynoic acid] | 60 nM |
| CC#C[C@@H](CC(=O)O)c1ccc(OCc2cc3c(ccn3Cc3ccccc3)cc2F)cc1 [Example 41, (S)-3-[4-(1-benzyl-5-fluoro-1H-indol-6-ylmethoxy)-phenyl]-hex-4-ynoic acid] | 1 to 50 nM |
| CC#C[C@@H](CC(=O)O)c1ccc(OCc2ccc3ccn(Cc4cccc(F)c4)c3c2C)cc1 [Example 42, (S)-3-{4-[1-(3-fluoro-benzyl)-7-methyl-1H-indol-6-ylmethoxy]-phenyl}-hex-4-ynoic acid] | 50 to 500 nM |
| CC#C[C@@H](CC(=O)O)c1ccc(OCc2ccc3ccn(Cc4cccc(C(F)(F)F)c4)c3c2C)cc1 [Example 43, (S)-3-{4-[7-methyl-1-(3-trifluoromethyl-benzyl)-1H-indol-6-ylmethoxy]-phenyl}-hex-4-ynoic acid] | 50 to 500 nM |
| CC#C[C@@H](CC(=O)O)c1ccc(OCc2ccc3ccn(Cc4cnc(C)cn4)c3c2C)cc1 [Example 44, (S)-3-{4-[7-methyl-1-(5-methyl-pyrazin-2-ylmethyl)-1H-indol-6-ylmethoxy]-phenyl}-hex-4-ynoic acid] | 1 to 50 nM |
| CC#C[C@@H](CC(=O)O)c1ccc(OCc2ccc3ccn(Cc4ccc(CS(C)(=O)=O)cc4)c3c2C)cc1 [Example 45, (S)-3-{4-[1-(4-methanesulfonylmethyl-benzyl)-7-methyl-1H-indol-6-ylmethoxy]-phenyl}-hex-4-ynoic acid] | 1 to 50 nM |
| CC#C[C@@H](CC(=O)O)c1ccc(OCc2ccc3ccn(Cc4ccc(Cl)nc4)c3c2C)cc1 [Example 46, (S)-3-{4-[1-(6-chloro-pyridin-3-ylmethyl)-7-methyl-1H-indol-6-ylmethoxy]-phenyl}-hex-4-ynoic acid] | 1 to 50 nM |
| CC#C[C@@H](CC(=O)O)c1ccc(OCc2cccc3nn(Cc4ccccc4)cc23)cc1 [Example 47, (S)-3-[4-(2-benzyl-2H-indazol-4-ylmethoxy)-phenyl]-hex-4-ynoic acid] | 1 to 50 nM |
| CC#C[C@@H](CC(=O)O)c1ccc(OCc2cccc3c2cnn3Cc2ccccc2)cc1 [Example 48, (S)-3-[4-(1-benzyl-1H-indazol-4-ylmethoxy)-phenyl]-hex-4-ynoic acid] | 1 to 50 nM |
| CC#C[C@@H](CC(=O)O)c1ccc(OCc2c(F)cc3ccn(Cc4ccccc4)c3c2C)cc1 [Example 49, (S)-3-[4-(1-benzyl-5-fluoro-7-methyl-1H-indol-6-ylmethoxy)-phenyl]-hex-4-ynoic acid] | 50 to 500 nM |
| CC#C[C@@H](CC(=O)O)c1ccc(OCc2ccc3ccn(Cc4ccc(F)cc4)c3c2C)cc1 [Example 50, (S)-3-{4-[1-(4-fluoro-benzyl)-7-methyl-1H-indol-6-ylmethoxy]-phenyl}-hex-4-ynoic acid] | 50 to 500 nM |
| CC#C[C@@H](CC(=O)O)c1ccc(OCc2ccc3ccn(Cc4ccc(F)c(F)c4)c3c2C)cc1 [Example 51, (S)-3-{4-[1-(3,4-difluoro-benzyl)-7-methyl-1H-indol-6-ylmethoxy]-phenyl}-hex-4-ynoic acid] | 50 to 500 nM |
| CC#C[C@@H](CC(=O)O)c1ccc(OCc2ccc3ccn(Cc4cc(F)cc(F)c4)c3c2C)cc1 [Example 52, (S)-3-{4-[1-(3,5-difluoro-benzyl)-7-methyl-1H-indol-6-ylmethoxy]-phenyl}-hex-4-ynoic acid] | 50 to 500 nM |

Next, values leading:

| EC50 | SMILES |
| --- | --- |
| 50 to 500 nM | CC#C[C@@H](CC(=O)O)c1ccc(OCc2ccc3ccn(Cc4ccc(F)cc4F)c3c2C)cc1 [Example 53, (S)-3-{4-[1-(2,4-difluoro-benzyl)-7-methyl-1H-indol-6-ylmethoxy]-phenyl}-hex-4-ynoic acid] |
| 50 to 500 nM | O=C(O)CCc1ccc(OCc2cccc3c2ccn3Cc2ccccc2)cc1F [Example 54, 3-[4-(1-benzyl-1H-indol-4-ylmethoxy)-2-fluoro-phenyl]-propanoic acid] |
| 1 to 50 nM | Cc1c(COc2ccc(CCC(=O)O)c(F)c2)ccc2ccn(Cc3ccccc3)c12 [Example 55, 3-[4-(1-benzyl-7-methyl-1H-indol-6-ylmethoxy)-2-fluoro-phenyl]-propanoic acid] |
| 1 to 50 nM | CC#C[C@@H](CC(=O)O)c1ccc(OCc2ccc3ccn(Cc4cscn4)c3c2C)cc1 [Example 56, (S)-3-[4-(7-methyl-1-thiazol-4-ylmethyl-1H-indol-6-ylmethoxy]-phenyl}-hex-4-ynoic acid] |
| 1 to 50 nM | CC#C[C@@H](CC(=O)O)c1ccc(OCc2ccc3ccn(Cc4csc(C)n4)c3c2C)cc1 [Example 57, (S)-3-{4-[7-methyl-1-(2-methyl-thiazol-4-ylmethyl)-1H-indol-6-ylmethoxy]-phenyl}-hex-4-ynoic acid] |
| 1 to 50 nM | CC#C[C@@H](CC(=O)O)c1ccc(OCc2ccc3cn(Cc4ccccc4)nc3c2)cc1 [Example 58, (S)-3-[4-(2-benzyl-2H-indazol-6-ylmethoxy)-phenyl]-hex-4-ynoic acid] |
| 1 to 50 nM | CC#C[C@@H](CC(=O)O)c1ccc(OCc2ccc3cnn(Cc4ccccc4)c3c2)cc1 [Example 59, (S)-3-[4-(1-benzyl-1H-indazol-6-ylmethoxy)-phenyl]-hex-4-ynoic acid] |
| 1 to 50 nM | CC#C[C@@H](CC(=O)O)c1ccc(OCc2ccc3ccn(Cc4cnccn4)c3c2C)cc1 [Example 60, (S)-3-[4-(7-methyl-1-pyrazin-2-ylmethyl-1H-indol-6-ylmethoxy)-phenyl]-hex-4-ynoic acid] |
| 1 to 50 nM | CC#C[C@@H](CC(=O)O)c1ccc(OCc2ccc3ccn(Cc4ccncn4)c3c2C)cc1 [Example 61, (S)-3-[4-(7-methyl-1-pyrimidin-4-ylmethyl-1H-indol-6-ylmethoxy)-phenyl]-hex-4-ynoic acid] |
| 50 to 500 nM | CC#C[C@@H](CC(=O)O)c1ccc(OCc2ccc3c(F)cn(Cc4ccccc4)c3c2C)cc1 [Example 62, (S)-3-[4-(1-benzyl-3-fluoro-7-methyl-1H-indol-6-ylmethoxy)-phenyl]-hex-4-ynoic acid] |
| 1 to 50 nM | CC#C[C@@H](CC(=O)O)c1ccc(OCc2ccc3ccn(Cc4cnn(C)c4)c3c2C)cc1 [Example 63, (S)-3-{4-[7-methyl-1-(1-methyl-1H-pyrazol-4-ylmethyl)-1H-indol-6-ylmethoxy)-phenyl]-hex-4-ynoic acid] |
| 50 to 500 nM | CC#C[C@@H](CC(=O)O)c1ccc(OCc2ccc3ccn(Cc4ncccn4)c3c2C)cc1 [Example 64, (S)-3-[4-(7-methyl-1-pyrimidin-2-ylmethyl-1H-indol-6-ylmethoxy)-phenyl]-hex-4-ynoic acid] |
| 50 nM | O=C(O)CC(C1=NOCC1)c1ccc(OCc2ccc3cnn(Cc4ccccc4)c3c2)cc1 (stereo not drawn) [Example 65, 3-[4-(1-benzyl-1H-indazol-6-ylmethoxy)-phenyl]-3-(4,5-dihydro-isoxazol-3-yl)-propanoic acid] |
| 10 nM | CC#C[C@@H](CC(=O)O)c1ccc(OCc2ccc3cnn(Cc4ccc(F)cc4)c3c2)cc1 [Example 66, (S)-3-{4-[1-(4-fluoro-benzyl)-1H-indazol-6-ylmethoxy]-phenyl}-hex-4-ynoic acid] |
| 70 nM | CC#C[C@@H](CC(=O)O)c1ccc(OCc2ccc3cn(Cc4ccc(F)cc4)nc3c2)cc1 [Example 67, (S)-3-{4-[2-(4-fluoro-benzyl)-2H-indazol-6-ylmethoxy]-phenyl}-hex-4-ynoic acid] |
| 50 to 500 nM | CC#C[C@@H](CC(=O)O)c1ccc(OCc2ccc3cnn(Cc4ncccn4)c3c2)cc1 [Example 68, (S)-3-[4-(1-pyrimidin-2-ylmethyl-1H-indazol-6-ylmethoxy)-phenyl}-hex-4-ynoic acid] |
